Source: patent US12702675B2, “Tetrahydrococannabinolic acid cocrystals” (Manoira Corporation, priority 2020, dated 2026)

Legend:
[1] = Solid-state stability study, accelerated conditions (40° C. and 75% relative humidity, 14 days); type: physicochemical; conditions: 40° C./75% RH, 2 weeks, sealed container
Protocol: A study was carried out to examine the physical stability of the tetrahydrocannabinolic acid cocrystals with respect to solid form conversion or signs of decomposition over time under both ambient and accelerated conditions.

[2] = Solid-state stability study, ambient conditions in clear glass vial for 6 months; type: physicochemical

## 1:1 tetrahydrocannabinolic acid ethyl maltol cocrystal [1:1 THCA ETHYL MALTOL]
[1]; 50 mg solid
  Appearance: No change
[1]; form change by XRPD
  XRPD analysis: slight signs of dissociation
[2]; 50 mg solid
  Appearance: No change
[2]; form change by XRPD
  XRPD analysis: No change
